Measurements: publication PMC7211202 (Investigational New Drugs, 2019)
Several values for one entry are separate records, joined by “and”; a condition that tells them apart may be missing. Identical values can stand only once.

Test: Patient incidence of adverse events (CTCAE version 4.0)
Type: in vivo
Description: Each patient was monitored for 21 days for the occurrence of dose-limiting toxicities (DLTs), defined as febrile neutropenia, neutropenic infection, grade 4 neutropenia lasting >7 days, grade ≥ 3 thrombocytopenia lasting >7 days (solid tumors only), grade 3 thrombocytopenia with grade ≥ 2 bleeding (solid tumors only), grade 3 or 4 thrombocytopenia with grade > 1 bleeding (multiple myeloma only), grade 4 thrombocytopenia (solid tumors only), or grade 4 thrombocytopenia lasting >14 days (multiple myeloma only), or as grade ≥ 3 nausea, vomiting, or diarrhea after support; grade 3 fatigue lasting >7 days; any other grade ≥ 3 adverse event (AE); grade ≥ 3 kidney injury (multiple myeloma only), or treatment-related AEs not returning to grade ≤ 1 (solid tumors only) per Common Terminology Criteria for Adverse Events (CTCAE), version 4.0. The MTD was defined as the maximum dose, at which the probability of a DLT was ≤25% in Part 1A and ≤ 33% in Parts 1B and 1C. Treatment continued until disease progression, intolerable toxicity, or withdrawal of consent.
AEs were recorded for all enrolled patients.

[1] = dose escalation, 300 mg (n = 4)
[2] = dose escalation, 360 mg (n = 4)
[3] = dose escalation, 480 mg (n = 6)
[4] = dose escalation, Total (n = 39)

CC(C)[C@@H](CS(=O)(=O)C(C)C)N1C(=O)[C@@](C)(CC(=O)O)C[C@H](c2cccc(Cl)c2)[C@H]1c1ccc(Cl)cc1 [AMG 232]
Treatment-related AE: Upper abdominal pain [1]: 1 (25) n (%) | Treatment-related AE: Vomiting [1]: 3 (75) n (%) | Treatment-related serious AE: Abdominal pain (grade 2) [1]: 0 n (%) | Treatment-related serious AE: Dehydration (grade 2) [1]: 1 (25) n (%) | Treatment-related serious AE: Diarrhea [1]: 1 (25) n (%) | Treatment-related serious AE: Diarrhea, Grade 2 [1]: 0 n (%) | Treatment-related serious AE: Diarrhea, Grade 3 [1]: 1 (25) n (%) | Treatment-related serious AE: Febrile neutropenia (grade 3) [1]: 1 (25) n (%) | Treatment-related serious AE: Hematemesis (grade 3) [1]: 0 n (%) | Treatment-related serious AE: Nausea (grade 3) [1]: 0 n (%) | Treatment-related serious AE: Neutropenia (grade 4) [1]: 0 n (%) | Treatment-related serious AE: Non-cardiac chest pain (grade 3) [1]: 0 n (%) | Treatment-related serious AE: Thrombocytopenia (grade 4) [1]: 0 n (%) | Treatment-related serious AE: Vomiting [1]: 2 (50) n (%) | Treatment-related serious AE: Vomiting, Grade 2 [1]: 1 (25) n (%) | Treatment-related serious AE: Vomiting, Grade 3 [1]: 1 (25) n (%) | Patients with any treatment-emergent AE [2]: 4 (100) n (%) | Patients with any treatment-emergent serious AE [2]: 0 n (%) | Patients with any treatment-related AE [2]: 4 (100) n (%) | Patients with any treatment-related AE, Grade 3 [2]: 3 (75) n (%) | Patients with any treatment-related AE, Grade 4 [2]: 2 (50) n (%) | Patients with any treatment-related AE, Grade 5 [2]: 0 n (%) | Patients with any treatment-related serious AE [2]: 0 n (%) | Treatment-related AE: Abdominal pain [2]: 1 (25) n (%) | Treatment-related AE: Anemia [2]: 2 (50) n (%) | Treatment-related AE: Asthenia [2]: 2 (50) n (%) | Treatment-related AE: Decrease appetite [2]: 3 (75) n (%) | Treatment-related AE: Diarrhea [2]: 4 (100) n (%) | Treatment-related AE: Dysgeusia [2]: 1 (25) n (%) | Treatment-related AE: Fatigue [2]: 0 n (%) | Treatment-related AE: Myalgia [2]: 2 (50) n (%) | Treatment-related AE: Nausea [2]: 4 (100) n (%) | Treatment-related AE: Neutropenia [2]: 3 (75) n (%) | Treatment-related AE: Thrombocytopenia [2]: 4 (100) n (%) | Treatment-related AE: Upper abdominal pain [2]: 1 (25) n (%) | Treatment-related AE: Vomiting [2]: 3 (75) n (%) | Treatment-related serious AE: Abdominal pain (grade 2) [2]: 0 n (%) | Treatment-related serious AE: Dehydration (grade 2) [2]: 0 n (%) | Treatment-related serious AE: Diarrhea [2]: 0 n (%) | Treatment-related serious AE: Diarrhea, Grade 2 [2]: 0 n (%) | Treatment-related serious AE: Diarrhea, Grade 3 [2]: 0 n (%) | Treatment-related serious AE: Febrile neutropenia (grade 3) [2]: 0 n (%) | Treatment-related serious AE: Hematemesis (grade 3) [2]: 0 n (%) | Treatment-related serious AE: Nausea (grade 3) [2]: 0 n (%) | Treatment-related serious AE: Neutropenia (grade 4) [2]: 0 n (%) | Treatment-related serious AE: Non-cardiac chest pain (grade 3) [2]: 0 n (%) | Treatment-related serious AE: Thrombocytopenia (grade 4) [2]: 0 n (%) | Treatment-related serious AE: Vomiting [2]: 0 n (%) | Treatment-related serious AE: Vomiting, Grade 2 [2]: 0 n (%) | Treatment-related serious AE: Vomiting, Grade 3 [2]: 0 n (%) | Patients with any treatment-emergent AE [3]: 6 (100) n (%) | Patients with any treatment-emergent serious AE [3]: 4 (67) n (%) | Patients with any treatment-related AE [3]: 6 (100) n (%) | Patients with any treatment-related AE, Grade 3 [3]: 3 (50) n (%) | Patients with any treatment-related AE, Grade 4 [3]: 3 (50) n (%) | Patients with any treatment-related AE, Grade 5 [3]: 0 n (%) | Patients with any treatment-related serious AE [3]: 2 (33) n (%) | Treatment-related AE: Abdominal pain [3]: 0 n (%) | Treatment-related AE: Anemia [3]: 2 (33) n (%) | Treatment-related AE: Asthenia [3]: 0 n (%) | Treatment-related AE: Decrease appetite [3]: 1 (17) n (%) | Treatment-related AE: Diarrhea [3]: 6 (100) n (%) | Treatment-related AE: Dysgeusia [3]: 0 n (%) | Treatment-related AE: Fatigue [3]: 4 (67) n (%) | Treatment-related AE: Myalgia [3]: 1 (17) n (%) | Treatment-related AE: Nausea [3]: 3 (50) n (%) | Treatment-related AE: Neutropenia [3]: 3 (50) n (%) | Treatment-related AE: Thrombocytopenia [3]: 5 (83) n (%) | Treatment-related AE: Upper abdominal pain [3]: 0 n (%) | Treatment-related AE: Vomiting [3]: 4 (67) n (%) | Treatment-related serious AE: Abdominal pain (grade 2) [3]: 0 n (%) | Treatment-related serious AE: Dehydration (grade 2) [3]: 0 n (%) | Treatment-related serious AE: Diarrhea [3]: 0 n (%) | Treatment-related serious AE: Diarrhea, Grade 2 [3]: 0 n (%) | Treatment-related serious AE: Diarrhea, Grade 3 [3]: 0 n (%) | Treatment-related serious AE: Febrile neutropenia (grade 3) [3]: 0 n (%) | Treatment-related serious AE: Hematemesis (grade 3) [3]: 1 (17) n (%) | Treatment-related serious AE: Nausea (grade 3) [3]: 0 n (%) | Treatment-related serious AE: Neutropenia (grade 4) [3]: 1 (17) n (%) | Treatment-related serious AE: Non-cardiac chest pain (grade 3) [3]: 0 n (%) | Treatment-related serious AE: Thrombocytopenia (grade 4) [3]: 2 (33) n (%) | Treatment-related serious AE: Vomiting [3]: 0 n (%) | Treatment-related serious AE: Vomiting, Grade 2 [3]: 0 n (%) | Treatment-related serious AE: Vomiting, Grade 3 [3]: 0 n (%) | Patients with any treatment-emergent AE [4]: 37 (95%) n (%) and 37 (95) n (%) | Patients with any treatment-emergent serious AE [4]: 14 (36%) n (%) and 14 (36) n (%) | Patients with any treatment-related AE, Grade 3 [4]: 13 (33) n (%) | Patients with any treatment-related AE, Grade 4 [4]: 8 (21) n (%) | Patients with any treatment-related AE, Grade 5 [4]: 0 n (%) | Treatment-related AE: Abdominal pain [4]: 4 (10) n (%) | Treatment-related AE: Anemia [4]: 5 (13) n (%) | Treatment-related AE: Asthenia [4]: 4 (10) n (%) | Treatment-related AE: Decrease appetite [4]: 10 (26) n (%) | Treatment-related AE: Diarrhea [4]: 25 (64) n (%) | Treatment-related AE: Dysgeusia [4]: 4 (10) n (%) | Treatment-related AE: Fatigue [4]: 16 (41) n (%) | Treatment-related AE: Myalgia [4]: 4 (10) n (%) | Treatment-related AE: Nausea [4]: 20 (51) n (%) | Treatment-related AE: Neutropenia [4]: 8 (21) n (%) | Treatment-related AE: Thrombocytopenia [4]: 14 (36) n (%) | Treatment-related AE: Upper abdominal pain [4]: 4 (10) n (%) | Treatment-related AE: Vomiting [4]: 18 (46) n (%) | Treatment-related serious AE: Abdominal pain (grade 2) [4]: 1 (3) n (%) | Treatment-related serious AE: Dehydration (grade 2) [4]: 1 (3) n (%) | Treatment-related serious AE: Diarrhea [4]: 2 (5) n (%) | Treatment-related serious AE: Diarrhea, Grade 2 [4]: 1 (3) n (%) | Treatment-related serious AE: Diarrhea, Grade 3 [4]: 1 (3) n (%) | Treatment-related serious AE: Febrile neutropenia (grade 3) [4]: 1 (3) n (%) | Treatment-related serious AE: Hematemesis (grade 3) [4]: 1 (3) n (%) | Treatment-related serious AE: Nausea (grade 3) [4]: 1 (3) n (%) | Treatment-related serious AE: Neutropenia (grade 4) [4]: 1 (3) n (%) | Treatment-related serious AE: Non-cardiac chest pain (grade 3) [4]: 1 (3) n (%) | Treatment-related serious AE: Thrombocytopenia (grade 4) [4]: 2 (5) n (%) | Treatment-related serious AE: Vomiting [4]: 3 (8) n (%) | Treatment-related serious AE: Vomiting, Grade 2 [4]: 1 (3) n (%) | Treatment-related serious AE: Vomiting, Grade 3 [4]: 2 (5) n (%) | Treatment-emergent AE: abdominal pain (dose escalation, all patients): 21% | Treatment-emergent AE: anemia (dose escalation, all patients): 26% | Treatment-emergent AE: decreased appetite (dose escalation, all patients): 39% | Treatment-emergent AE: diarrhea (dose escalation, all patients): 67% | Treatment-emergent AE: fatigue (dose escalation, all patients): 41% | Treatment-emergent AE: nausea (dose escalation, all patients): 59% | Treatment-emergent AE: neutropenia (dose escalation, all patients): 26% | Treatment-emergent AE: thrombocytopenia (dose escalation, all patients): 36% | Treatment-emergent AE: vomiting (dose escalation, all patients): 51% | Treatment-related AE: Diarrhea (dose escalation, all patients): 64% | Treatment-related AE: Fatigue (dose escalation, all patients): 41% | Treatment-related AE: Nausea (dose escalation, all patients): 51% | Treatment-related AE: Neutropenia (dose escalation, all patients): 21% | Treatment-related AE: Thrombocytopenia (dose escalation, all patients): 36% | Treatment-related AE: Vomiting (dose escalation, all patients): 46% | Treatment-related AE: decreased appetite (dose escalation, all patients): 26% | Patients discontinuing treatment due to AEs (entire study (107 patients)): 21 n
